Results on eleven molecules are retold here after patent publication US20260356819A1, “OXOISOINDOLINYL-SUBSTITUTED […] DERIVATIVE AND USE THEREOF” (GLUETACS THERAPEUTICS (SHANGHAI) CO., LTD., priority 2023, published 2026).

Common to all, as to format: cell-based
Common to all, as to settings: compounds at 50 nM and 500 nM

The target in experiment [1] is T1, GSPT1 (Homo sapiens, UniProt P15170+Q96SW2).
T1 construct: The supernatant was aspirated as the extracted total cell protein; endogenous in cells; host or cells: human peripheral blood mononuclear cells (hPBMCs)
Kind of experiment: Western blot degradation of GSPT1 in hPBMCs (24 h). Put shortly:
(§1)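 Immunoblot densitometry quantifies target loss in hPBMCs after a 24 h compound exposure (50 nM, 500 nM). Percent remaining is normalised band intensity; DC50 is the concentration giving half the DMSO-control band grayscale.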
Background: Immunoblotting shows a protein as a band on a membrane.

Experiment [2] concerns the target T2, IKZF3 (Homo sapiens, UniProt Q96SW2+Q9UKT9).
T2 construct: The supernatant was aspirated as the extracted total cell protein; endogenous in cells; host or cells: human peripheral blood mononuclear cells (hPBMCs)
In words: Western blot degradation of IKZF3 in hPBMCs (24 h). Put shortly: as §1

The target of experiment [3] is T3, IKZF1 (Homo sapiens, UniProt Q13422+Q96SW2).
T3 construct: The supernatant was aspirated as the extracted total cell protein; endogenous in cells; host or cells: human peripheral blood mononuclear cells (hPBMCs)
T3 sequence (Q13422 whole entry): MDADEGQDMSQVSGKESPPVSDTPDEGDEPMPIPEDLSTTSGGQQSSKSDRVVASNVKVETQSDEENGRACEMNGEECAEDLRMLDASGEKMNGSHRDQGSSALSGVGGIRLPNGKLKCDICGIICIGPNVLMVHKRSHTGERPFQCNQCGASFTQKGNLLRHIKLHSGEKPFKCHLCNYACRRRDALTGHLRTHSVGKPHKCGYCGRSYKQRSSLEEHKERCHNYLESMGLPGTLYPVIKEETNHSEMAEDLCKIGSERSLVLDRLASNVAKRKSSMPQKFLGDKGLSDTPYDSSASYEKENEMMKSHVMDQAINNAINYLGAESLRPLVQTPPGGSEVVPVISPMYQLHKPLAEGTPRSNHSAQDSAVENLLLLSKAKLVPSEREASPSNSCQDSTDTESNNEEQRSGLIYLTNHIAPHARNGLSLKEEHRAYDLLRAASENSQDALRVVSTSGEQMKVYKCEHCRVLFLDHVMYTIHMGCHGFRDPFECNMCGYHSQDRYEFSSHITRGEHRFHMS
T3 sequence (Q96SW2 whole entry): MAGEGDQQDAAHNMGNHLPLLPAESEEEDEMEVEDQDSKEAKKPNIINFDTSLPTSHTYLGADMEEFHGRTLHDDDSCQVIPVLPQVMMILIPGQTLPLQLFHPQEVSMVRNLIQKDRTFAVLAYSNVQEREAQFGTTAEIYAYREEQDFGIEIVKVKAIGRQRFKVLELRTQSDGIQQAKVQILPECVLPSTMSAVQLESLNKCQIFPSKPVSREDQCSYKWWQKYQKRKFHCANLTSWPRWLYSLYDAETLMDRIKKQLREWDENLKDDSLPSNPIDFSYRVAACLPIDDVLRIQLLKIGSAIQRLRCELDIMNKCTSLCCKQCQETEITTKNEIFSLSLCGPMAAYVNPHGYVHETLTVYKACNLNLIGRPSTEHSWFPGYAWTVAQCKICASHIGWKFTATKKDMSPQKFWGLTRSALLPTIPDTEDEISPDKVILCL
T3 sequence (Q16531 whole entry partner): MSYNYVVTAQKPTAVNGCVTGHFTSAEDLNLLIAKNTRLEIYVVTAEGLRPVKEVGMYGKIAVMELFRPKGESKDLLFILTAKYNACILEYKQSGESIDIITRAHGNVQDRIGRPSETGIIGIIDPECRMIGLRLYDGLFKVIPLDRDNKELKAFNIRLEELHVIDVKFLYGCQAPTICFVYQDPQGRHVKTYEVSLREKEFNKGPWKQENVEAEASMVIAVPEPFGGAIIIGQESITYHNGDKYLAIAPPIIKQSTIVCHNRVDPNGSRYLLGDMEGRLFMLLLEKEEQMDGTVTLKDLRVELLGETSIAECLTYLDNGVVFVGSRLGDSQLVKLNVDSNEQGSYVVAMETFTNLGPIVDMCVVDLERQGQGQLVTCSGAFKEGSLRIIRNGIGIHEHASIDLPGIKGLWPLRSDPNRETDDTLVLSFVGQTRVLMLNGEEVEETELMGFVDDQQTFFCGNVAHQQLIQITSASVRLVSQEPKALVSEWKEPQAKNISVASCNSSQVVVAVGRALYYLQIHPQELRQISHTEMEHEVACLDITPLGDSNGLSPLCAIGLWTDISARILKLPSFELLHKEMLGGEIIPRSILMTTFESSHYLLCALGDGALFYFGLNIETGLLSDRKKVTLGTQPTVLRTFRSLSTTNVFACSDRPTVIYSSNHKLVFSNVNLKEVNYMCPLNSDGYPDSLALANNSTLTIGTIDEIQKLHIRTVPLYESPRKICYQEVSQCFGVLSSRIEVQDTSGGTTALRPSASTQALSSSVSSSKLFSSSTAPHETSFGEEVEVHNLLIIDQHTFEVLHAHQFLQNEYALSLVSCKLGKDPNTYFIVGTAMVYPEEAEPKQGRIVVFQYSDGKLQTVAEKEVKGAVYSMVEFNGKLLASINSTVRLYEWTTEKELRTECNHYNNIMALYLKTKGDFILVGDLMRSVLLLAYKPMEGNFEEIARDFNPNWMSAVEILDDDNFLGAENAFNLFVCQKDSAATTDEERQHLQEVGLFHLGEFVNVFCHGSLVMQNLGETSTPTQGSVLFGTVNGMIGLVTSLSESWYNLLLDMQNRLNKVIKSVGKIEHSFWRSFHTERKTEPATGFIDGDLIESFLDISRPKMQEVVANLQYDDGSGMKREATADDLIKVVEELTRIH
In words: Western blot degradation of IKZF1 in hPBMCs (24 h). In outline:
as §1

Experiment [4] has as its target T4, WEE1 (Homo sapiens, UniProt P30291+Q96SW2).
T4 construct: The supernatant was aspirated as the extracted total cell protein; endogenous in cells; host or cells: human peripheral blood mononuclear cells (hPBMCs)
Kind of experiment: Western blot degradation of WEE1 in hPBMCs (24 h). In outline:
as §1

Experiment [5] deals with T5, IKZF2 (Homo sapiens, UniProt Q96SW2+Q9UKS7).
T5 construct: The supernatant was aspirated as the extracted total cell protein; endogenous in cells; host or cells: human peripheral blood mononuclear cells (hPBMCs)
T5 sequence (Q9UKS7 whole entry): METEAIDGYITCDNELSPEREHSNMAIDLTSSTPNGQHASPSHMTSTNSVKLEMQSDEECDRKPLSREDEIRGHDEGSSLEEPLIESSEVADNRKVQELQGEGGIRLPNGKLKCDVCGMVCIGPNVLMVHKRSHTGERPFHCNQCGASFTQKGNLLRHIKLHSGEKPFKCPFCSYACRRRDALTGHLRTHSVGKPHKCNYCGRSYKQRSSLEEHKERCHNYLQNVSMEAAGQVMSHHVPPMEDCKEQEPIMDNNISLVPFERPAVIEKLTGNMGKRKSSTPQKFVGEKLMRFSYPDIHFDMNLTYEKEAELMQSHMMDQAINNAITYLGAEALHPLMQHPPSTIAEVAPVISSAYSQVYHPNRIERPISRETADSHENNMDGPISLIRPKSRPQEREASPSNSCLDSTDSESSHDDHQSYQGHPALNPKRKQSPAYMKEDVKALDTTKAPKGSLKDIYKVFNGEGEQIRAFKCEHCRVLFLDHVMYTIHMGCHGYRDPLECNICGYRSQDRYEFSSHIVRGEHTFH
T5 sequence (Q96SW2 whole entry): as the sequence (Q96SW2 whole entry) above
T5 sequence (Q16531 whole entry partner): as the sequence (Q16531 whole entry partner) above
Kind of experiment: Western blot degradation of IKZF2 in hPBMCs (24 h). In outline:
as §1

The target of experiment [6] is T6, CK1α (Homo sapiens, UniProt P48729+Q96SW2).
T6 construct: The supernatant was aspirated as the extracted total cell protein; endogenous in cells; host or cells: human peripheral blood mononuclear cells (hPBMCs)
T6 sequence (P48729 whole entry): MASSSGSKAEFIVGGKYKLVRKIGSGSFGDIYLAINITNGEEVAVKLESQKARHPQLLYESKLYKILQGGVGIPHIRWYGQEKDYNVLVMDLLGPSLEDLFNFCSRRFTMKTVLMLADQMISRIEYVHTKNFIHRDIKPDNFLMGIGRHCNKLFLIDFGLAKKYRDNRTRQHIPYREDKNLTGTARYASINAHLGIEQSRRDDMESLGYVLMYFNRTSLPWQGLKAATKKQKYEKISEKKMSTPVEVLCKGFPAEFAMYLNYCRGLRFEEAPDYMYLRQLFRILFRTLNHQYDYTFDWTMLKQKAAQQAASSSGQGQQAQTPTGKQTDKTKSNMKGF
T6 sequence (Q96SW2 whole entry): as the sequence (Q96SW2 whole entry) above
T6 sequence (Q16531 whole entry partner): as the sequence (Q16531 whole entry partner) above
Kind of experiment: Western blot degradation of CK1α in hPBMCs (24 h). In outline: as §1

T2 sequence (Q9UKT9 whole entry): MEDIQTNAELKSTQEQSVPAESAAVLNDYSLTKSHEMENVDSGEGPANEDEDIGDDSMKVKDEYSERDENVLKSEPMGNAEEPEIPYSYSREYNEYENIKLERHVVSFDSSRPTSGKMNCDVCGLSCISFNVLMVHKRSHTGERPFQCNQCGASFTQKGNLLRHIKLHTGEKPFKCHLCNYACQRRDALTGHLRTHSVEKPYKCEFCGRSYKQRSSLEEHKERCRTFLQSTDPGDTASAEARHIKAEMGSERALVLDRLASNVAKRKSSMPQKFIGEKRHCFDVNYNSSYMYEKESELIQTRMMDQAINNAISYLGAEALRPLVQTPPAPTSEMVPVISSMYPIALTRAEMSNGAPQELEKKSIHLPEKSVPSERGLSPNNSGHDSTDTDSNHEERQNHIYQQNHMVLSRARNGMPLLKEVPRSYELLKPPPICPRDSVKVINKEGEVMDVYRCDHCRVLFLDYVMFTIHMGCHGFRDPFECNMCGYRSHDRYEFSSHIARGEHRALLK
T2 sequence (Q96SW2 whole entry): as the sequence (Q96SW2 whole entry) above
T2 sequence (Q16531 whole entry partner): as the sequence (Q16531 whole entry partner) above
T4 sequence (P30291 whole entry): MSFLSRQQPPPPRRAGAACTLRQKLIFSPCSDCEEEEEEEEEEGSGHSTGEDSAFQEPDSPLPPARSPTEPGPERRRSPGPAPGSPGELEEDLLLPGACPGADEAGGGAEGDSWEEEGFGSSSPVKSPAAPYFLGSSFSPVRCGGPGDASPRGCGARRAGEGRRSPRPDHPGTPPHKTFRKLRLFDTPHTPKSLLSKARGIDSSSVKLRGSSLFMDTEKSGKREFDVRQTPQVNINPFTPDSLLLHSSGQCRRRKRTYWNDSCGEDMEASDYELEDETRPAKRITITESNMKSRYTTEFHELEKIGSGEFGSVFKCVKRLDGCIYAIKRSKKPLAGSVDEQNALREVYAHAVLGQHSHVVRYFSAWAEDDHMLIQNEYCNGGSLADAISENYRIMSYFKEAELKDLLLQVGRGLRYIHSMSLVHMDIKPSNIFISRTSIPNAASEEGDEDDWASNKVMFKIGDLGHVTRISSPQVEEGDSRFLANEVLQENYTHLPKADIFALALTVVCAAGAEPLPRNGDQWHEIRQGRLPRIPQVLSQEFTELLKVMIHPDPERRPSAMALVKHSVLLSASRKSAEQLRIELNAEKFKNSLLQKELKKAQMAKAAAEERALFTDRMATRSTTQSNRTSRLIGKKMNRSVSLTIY
T4 sequence (Q96SW2 whole entry): as the sequence (Q96SW2 whole entry) above
T4 sequence (Q16531 whole entry partner): as the sequence (Q16531 whole entry partner) above

On to `O=C1CCN(N2Cc3cc(CN4CCN(c5noc6cc(F)ccc56)CC4)ccc3C2=O)C(=O)N1` [GT-07496, 1-(5-((4-(6-fluorobenzo[d]isoxazol-3-yl)piperazin-1-yl)methyl)-1-oxoisoindolin-2-yl)dihydropyrimidine-2,4(1H,3H)-dione], for which, in experiment [1], the “GSPT1 substrate protein remaining %” value was “A (0% ≤ substrate protein remaining % ≤80%)”. Also, in experiment [2], the “IKZF3 substrate protein remaining %” value was “B (80%< substrate protein remaining % ≤100%)”. The “IKZF1 substrate protein remaining %” value in experiment [3] is “B (80%< substrate protein remaining % ≤100%)”. In addition, in experiment [4], the “WEE1 substrate protein remaining %” value is “B (80%< substrate protein remaining % ≤100%)”. Moreover, the “IKZF2 substrate protein remaining %” value in experiment [5] was “B (80%< substrate protein remaining % ≤100%)”. Besides, the “CK1α substrate protein remaining %” value in experiment [6] is recorded as “A (0% ≤ substrate protein remaining % ≤80%)”.
In the case of `O=C1CCN(N2Cc3cc(CN4CCN(c5cc(Cl)nnc5Cl)CC4)ccc3C2=O)C(=O)N1` [GT-07030, 1-(5-((4-(3,6-dichloropyridazin-4-yl)piperazin-1-yl)methyl)-1-oxoisoindolin-2-yl)dihydropyrimidine-2,4(1H,3H)-dione], the “GSPT1 substrate protein remaining %” value in experiment [1] was “B (80%< substrate protein remaining % ≤100%)”. In addition, the “IKZF3 substrate protein remaining %” value in experiment [2] is given as “B (80%< substrate protein remaining % ≤100%)”. The “IKZF1 substrate protein remaining %” value in experiment [3] is “B (80%< substrate protein remaining % ≤100%)”. Further, in experiment [4], the “WEE1 substrate protein remaining %” value is given as “B (80%< substrate protein remaining % ≤100%)”. For the same molecule, the “IKZF2 substrate protein remaining %” value in experiment [5] was “A (0% ≤ substrate protein remaining % ≤80%)”. The “CK1α substrate protein remaining %” value in experiment [6] is “B (80%< substrate protein remaining % ≤100%)”.
As to `O=C1CCN(N2Cc3cc(CN4C[C@@H]5C[C@H]4CN5C(c4ccccc4)c4ccccc4)ccc3C2=O)C(=O)N1` [GT-04938, 1-(5-(((1S,4S)-5-benzhydryl-2,5-diazabicyclo[2.2.1]heptan-2-yl)methyl)-1-oxoisoindolin-2-yl)dihydropyrimidine-2,4(1H,3H)-dione], in experiment [1], the “GSPT1 substrate protein remaining %” value was “A (0% ≤ substrate protein remaining % ≤80%)”. Besides, the “IKZF3 substrate protein remaining %” value in experiment [2] is on record as “B (80%< substrate protein remaining % ≤100%)”. The “IKZF1 substrate protein remaining %” value in experiment [3] is given as “B (80%< substrate protein remaining % ≤100%)”. Also, the “WEE1 substrate protein remaining %” value in experiment [4] was “A (0% ≤ substrate protein remaining % ≤80%)”. For the same molecule, the “IKZF2 substrate protein remaining %” value in experiment [5] was “A (0% ≤ substrate protein remaining % ≤80%)”. In addition, in experiment [6], the “CK1α substrate protein remaining %” value is “B (80%< substrate protein remaining % ≤100%)”.
In the case of `NCc1ccc2c(c1)C(=O)N(N1CCC(=O)NC1=O)C2=O` [GT-07968, 5-(aminomethyl)-2-(2,4-dioxotetrahydropyrimidin-1(2H)-yl)isoindoline-1,3-dione], the “GSPT1 substrate protein remaining %” value in experiment [1] is “B (80%< substrate protein remaining % ≤100%)”. For the same molecule, in experiment [2], the “IKZF3 substrate protein remaining %” value is given as “A (0% ≤ substrate protein remaining % ≤80%)”. The “IKZF1 substrate protein remaining %” value in experiment [3] is given as “A (0% ≤ substrate protein remaining % ≤80%)”. Moreover, in experiment [4], the “WEE1 substrate protein remaining %” value was “A (0% ≤ substrate protein remaining % ≤80%)”. Further, the “IKZF2 substrate protein remaining %” value in experiment [5] is reported as “A (0% ≤ substrate protein remaining % ≤80%)”. In experiment [6], the “CK1α substrate protein remaining %” value was “A (0% ≤ substrate protein remaining % ≤80%)”.
With `O=C1CCN(N2C(=O)c3ccc(CN4CC(c5ccnc6cc(F)ccc56)C4)cc3C2=O)C(=O)N1` [GT-07718, 2-(2,4-dioxotetrahydropyrimidin-1(2H)-yl)-5-((3-(7-fluoroquinolin-4-yl)azetidin-1-yl)methyl)isoindoline-1,3-dione], the “GSPT1 substrate protein remaining %” value in experiment [1] is recorded as “A (0% ≤ substrate protein remaining % ≤80%)”. The “IKZF3 substrate protein remaining %” value in experiment [2] is given as “A (0% ≤ substrate protein remaining % ≤80%)”. In experiment [3], the “IKZF1 substrate protein remaining %” value is listed as “B (80%< substrate protein remaining % ≤100%)”. In addition, the “WEE1 substrate protein remaining %” value in experiment [4] was “B (80%< substrate protein remaining % ≤100%)”. In addition, the “IKZF2 substrate protein remaining %” value in experiment [5] was “B (80%< substrate protein remaining % ≤100%)”. Moreover, the “CK1α substrate protein remaining %” value in experiment [6] is on record as “A (0% ≤ substrate protein remaining % ≤80%)”.
On to `O=C1CCN(N2C(=O)c3ccc(CN4CCN(c5cc(Cl)nnc5Cl)CC4)cc3C2=O)C(=O)N1` [GT-07036, 5-((4-(3,6-dichloropyridazin-4-yl)piperazin-1-yl)methyl)-2-(2,4-dioxotetrahydropyrimidin-1(2H)-yl)isoindoline-1,3-dione], for which the “GSPT1 substrate protein remaining %” value in experiment [1] is given as “A (0% ≤ substrate protein remaining % ≤80%)”. Moreover, in experiment [2], the “IKZF3 substrate protein remaining %” value is reported as “B (80%< substrate protein remaining % ≤100%)”. The “IKZF1 substrate protein remaining %” value in experiment [3] was “B (80%< substrate protein remaining % ≤100%)”. Moreover, the “WEE1 substrate protein remaining %” value in experiment [4] is reported as “B (80%< substrate protein remaining % ≤100%)”. In experiment [5], the “IKZF2 substrate protein remaining %” value is “B (80%< substrate protein remaining % ≤100%)”. Besides, the “CK1α substrate protein remaining %” value in experiment [6] is “B (80%< substrate protein remaining % ≤100%)”.
With `O=C1CCN(N2C(=O)c3ccc(CN4CC=C(c5ccnc(Cl)c5Cl)CC4)cc3C2=O)C(=O)N1` [GT-07440, 5-((2′,3′-dichloro-3,6-dihydro-[4,4′-bipyridin]-1(2H)-yl)methyl)-2-(2,4-dioxotetrahydropyrimidin-1(2H)-yl)isoindoline-1,3-dione], in experiment [1], the “GSPT1 substrate protein remaining %” value is on record as “A (0% ≤ substrate protein remaining % ≤80%)”. Further, the “IKZF3 substrate protein remaining %” value in experiment [2] is given as “B (80%< substrate protein remaining % ≤100%)”. Also, the “IKZF1 substrate protein remaining %” value in experiment [3] was “B (80%< substrate protein remaining % ≤100%)”. In experiment [4], the “WEE1 substrate protein remaining %” value was “A (0% ≤ substrate protein remaining % ≤80%)”. Also, in experiment [5], the “IKZF2 substrate protein remaining %” value is “B (80%< substrate protein remaining % ≤100%)”. Further, the “CK1α substrate protein remaining %” value in experiment [6] was “A (0% ≤ substrate protein remaining % ≤80%)”.
In the case of `O=C1CCN(N2Cc3cc(CN4CCN(c5ncnc(Cl)c5Cl)CC4)ccc3C2=O)C(=O)N1` [GT-07028, 1-(5-((4-(5,6-dichloropyrimidin-4-yl)piperazin-1-yl)methyl)-1-oxoisoindolin-2-yl)dihydropyrimidine-2,4(1H,3H)-dione], the “GSPT1 substrate protein remaining %” value in experiment [1] is “A (0% ≤ substrate protein remaining % ≤80%)”. Moreover, the “IKZF3 substrate protein remaining %” value in experiment [2] is reported as “B (80%< substrate protein remaining % ≤100%)”. Further, the “IKZF1 substrate protein remaining %” value in experiment [3] is listed as “B (80%< substrate protein remaining % ≤100%)”. For the same molecule, in experiment [4], the “WEE1 substrate protein remaining %” value was “A (0% ≤ substrate protein remaining % ≤80%)”. Besides, the “IKZF2 substrate protein remaining %” value in experiment [5] is reported as “B (80%< substrate protein remaining % ≤100%)”. Besides, in experiment [6], the “CK1α substrate protein remaining %” value is listed as “B (80%< substrate protein remaining % ≤100%)”.
On to `O=C1CCN(N2C(=O)c3ccc(CN4CCN(C(c5ccc(Cl)cc5)c5ccc(Cl)cc5)CC4)cc3C2=O)C(=O)N1` [GT-05269, 5-((4-(bis(4-chlorophenyl)methyl)piperazin-1-yl)methyl)-2-(2,4-dioxotetrahydropyrimidin-1(2H)-yl)isoindoline-1,3-dione], for which the “GSPT1 substrate protein remaining %” value in experiment [1] is given as “A (0% ≤ substrate protein remaining % ≤80%)”. For the same molecule, the “IKZF3 substrate protein remaining %” value in experiment [2] is listed as “B (80%< substrate protein remaining % ≤100%)”. Also, in experiment [3], the “IKZF1 substrate protein remaining %” value is “B (80%< substrate protein remaining % ≤100%)”. Moreover, in experiment [4], the “WEE1 substrate protein remaining %” value is “B (80%< substrate protein remaining % ≤100%)”. For the same molecule, the “IKZF2 substrate protein remaining %” value in experiment [5] is recorded as “B (80%< substrate protein remaining % ≤100%)”. The “CK1α substrate protein remaining %” value in experiment [6] is given as “A (0% ≤ substrate protein remaining % ≤80%)”.
`O=C1CCN(N2Cc3cc(CN4CC=C(c5cccc(Cl)c5Cl)CC4)ccc3C2=O)C(=O)N1` [GT-08054, 1-(5-((4-(2,3-dichlorophenyl)-3,6-dihydropyridin-1(2H)-yl)methyl)-1-oxoisoindolin-2-yl)dihydropyrimidine-2,4(1H,3H)-dione]: the “GSPT1 substrate protein remaining %” value in experiment [1] is recorded as “A (0% ≤ substrate protein remaining % ≤80%)”. Also, the “IKZF3 substrate protein remaining %” value in experiment [2] is reported as “A (0% ≤ substrate protein remaining % ≤80%)”. In addition, the “IKZF1 substrate protein remaining %” value in experiment [3] is “A (0% ≤ substrate protein remaining % ≤80%)”. In addition, in experiment [4], the “WEE1 substrate protein remaining %” value is on record as “A (0% ≤ substrate protein remaining % ≤80%)”. Besides, the “IKZF2 substrate protein remaining %” value in experiment [5] was “A (0% ≤ substrate protein remaining % ≤80%)”. Also, the “CK1α substrate protein remaining %” value in experiment [6] was “A (0% ≤ substrate protein remaining % ≤80%)”.
Regarding `O=C1CCN(N2C(=O)c3ccc(CN4CCN(CC5=C(c6ccc(F)cc6)CCCC5)CC4)cc3C2=O)C(=O)N1` [GT-07302, 2-(2,4-dioxotetrahydropyrimidin-1(2H)-yl)-5-((4-((4′-fluoro-3,4,5,6-tetrahydro-[1,1′-biphenyl]-2-yl)methyl)piperazin-1-yl)methyl)isoindoline-1,3-dione], in experiment [1], the “GSPT1 substrate protein remaining %” value is “B (80%< substrate protein remaining % ≤100%)”. For the same molecule, the “IKZF3 substrate protein remaining %” value in experiment [2] is given as “B (80%< substrate protein remaining % ≤100%)”. Also, the “IKZF1 substrate protein remaining %” value in experiment [3] is recorded as “B (80%< substrate protein remaining % ≤100%)”. Further, the “WEE1 substrate protein remaining %” value in experiment [4] is listed as “A (0% ≤ substrate protein remaining % ≤80%)”. In addition, the “IKZF2 substrate protein remaining %” value in experiment [5] is recorded as “B (80%< substrate protein remaining % ≤100%)”. Also, the “CK1α substrate protein remaining %” value in experiment [6] is recorded as “B (80%< substrate protein remaining % ≤100%)”.
